Test [1] has as its system ECa-109 cell line. As to the kind of experiment: Induction of apoptosis in human ECa-109 cells assessed as viable cells at 1 uM incubated for 48 hrs by annexin-V-FITC and PI staining based fluorescence microscopic analysis (reference value: 95.8 %). Type of test: functional. Particulars: read-out: Activity.
In test [2] the test system is ECa-109 cell line. As to the kind of experiment: Induction of apoptosis in human ECa-109 cells assessed as early apoptotic cells at 1 uM incubated for 48 hrs by annexin-V-FITC and PI staining based fluorescence microscopic analysis (reference value: 0.971 %). Type of test: functional.
In test [3] the test system is ECa-109 cell line. As to the kind of experiment: Induction of apoptosis in human ECa-109 cells assessed as late apoptotic cells at 1 uM incubated for 48 hrs by annexin-V-FITC and PI staining based fluorescence microscopic analysis (reference value: 2.01 %). Format: functional.
Test [4] has as its system ECa-109 cell line. The test can be described thus: Induction of apoptosis in human ECa-109 cells assessed as necrotic cells at 1 uM incubated for 48 hrs by annexin-V-FITC and PI staining based fluorescence microscopic analysis (reference value: 1.19 %). Type of test: functional.
Test [5] relates to ECa-109 cell line. The test can be described thus: Induction of apoptosis in human ECa-109 cells assessed as viable cells at 2 uM incubated for 48 hrs by annexin-V-FITC and PI staining based fluorescence microscopic analysis (reference value: 95.8 %). Type of test: functional. Particulars: read-out: Activity.
Test [6] has as its system ECa-109 cell line. As to the kind of experiment: Induction of apoptosis in human ECa-109 cells assessed as viable cells at 4 uM incubated for 48 hrs by annexin-V-FITC and PI staining based fluorescence microscopic analysis (reference value: 95.8 %). The settings on record: read-out: Activity. Type of test: functional.
Test [7] relates to ECa-109 cell line. The test can be described thus: Induction of apoptosis in human ECa-109 cells assessed as late apoptotic cells at 4 uM incubated for 48 hrs by annexin-V-FITC and PI staining based fluorescence microscopic analysis (reference value: 2.01 %). Type of test: functional.
For test [8], the system named is ECa-109 cell line. As to the kind of experiment: Induction of apoptosis in human ECa-109 cells assessed as late apoptotic cells incubated for 48 hrs by annexin-V-FITC and PI staining based fluorescence microscopic analysis. Type of test: functional, cell-based. The settings on record: dose 1-4 µM.
For test [9], the system named is ECa-109 cell line. As to the kind of experiment: Induction of ROS-mediated apoptosis in human ECa-109 cells assessed as early apoptotic cells at 2 uM incubated for 48 hrs by annexin V-PE and 7-AAD staining based flow cytometry analysis (reference value: 2.70 %). Type of test: functional. Background: In flow cytometry, cells or beads pass a laser one at a time.
Test [10] has as its system ECa-109 cell line. As to the kind of experiment: Induction of ROS-mediated apoptosis in human ECa-109 cells assessed as late apoptotic cells at 2 uM incubated for 48 hrs by annexin V-PE and 7-AAD staining based flow cytometry analysis (reference value: 3.89 %). Format: functional.
Test [11] has as its system ECa-109 cell line. The test can be described thus: Induction of ROS-mediated apoptosis in human ECa-109 cells assessed as necrotic cells at 2 uM incubated for 48 hrs by annexin V-PE and 7-AAD staining based flow cytometry analysis (reference value: 0.729 %). Type of test: functional.
In test [12] the test system is ECa-109 cell line. The test can be described thus: Induction of ROS-mediated apoptosis in human ECa-109 cells assessed as viable cells at 1 uM incubated for 48 hrs in presence of NAC by annexin V-PE and 7-AAD staining based flow cytometry analysis (reference value: 94 %). Format: functional. The settings on record: read-out: Activity.
The test system of test [13] is ECa-109 cell line. The test can be described thus: Induction of ROS-mediated apoptosis in human ECa-109 cells assessed as necrotic cells at 1 uM incubated for 48 hrs in presence of NAC by annexin V-PE and 7-AAD staining based flow cytometry analysis (reference value: 1.09 %). Format: functional.
The test system of test [14] is ECa-109 cell line. The test can be described thus: Induction of ROS-mediated apoptosis in human ECa-109 cells assessed as viable cells at 2 uM incubated for 48 hrs in presence of NAC by annexin V-PE and 7-AAD staining based flow cytometry analysis (reference value: 94 %). Format: functional. Particulars: read-out: Activity.
Test [15] relates to ECa-109 cell line. As to the kind of experiment: Induction of cell cycle arrest in human ECa-109 cells assessed as accumulation in S phase at 1 uM incubated for 48 hrs by PI staining based flow cytometry analysis (reference value: 39.33 %). Type of test: functional.
Test [16] concerns ECa-109 cell line. As to the kind of experiment: Induction of cell cycle arrest in human ECa-109 cells assessed as accumulation in G2/M phase at 1 uM incubated for 48 hrs by PI staining based flow cytometry analysis (reference value: 8.39 %). Format: functional.
The subject of test [17] is ECa-109 cell line. The test can be described thus: Induction of cell cycle arrest in human ECa-109 cells assessed as accumulation in G2/M phase at 2 uM incubated for 48 hrs by PI staining based flow cytometry analysis (reference value: 8.39 %). Type of test: functional.
Test [18] is described as follows: Selectivity index, ratio of IC50 for cytotoxicity against human HL7702 cells to IC50 for cytotoxicity against human SGC-7901 cells.
The subject of test [19] is SGC-7901. The test can be described thus: Induction of apoptosis in human SGC-7901 cells assessed as late apoptotic cells at 1 uM incubated for 48 hrs by annexin-V-FITC and PI staining based fluorescence microscopic analysis (reference value: 3.87 %). Type of test: functional.
Test [20] relates to SGC-7901. As to the kind of experiment: Induction of apoptosis in human SGC-7901 cells assessed as viable cells at 2 uM incubated for 48 hrs by annexin-V-FITC and PI staining based fluorescence microscopic analysis (reference value: 93.8 %). Format: functional. The settings on record: read-out: Activity.
Test [21] relates to SGC-7901. The test can be described thus: Induction of apoptosis in human SGC-7901 cells assessed as early apoptotic cells at 2 uM incubated for 48 hrs by annexin-V-FITC and PI staining based fluorescence microscopic analysis (reference value: 1.87 %). Type of test: functional.
Test [22] concerns SGC-7901. As to the kind of experiment: Induction of apoptosis in human SGC-7901 cells assessed as early apoptotic cells at 4 uM incubated for 48 hrs by annexin-V-FITC and PI staining based fluorescence microscopic analysis (reference value: 1.87 %). Type of test: functional.
The test system of test [23] is SGC-7901. The test can be described thus: Induction of ROS-mediated apoptosis in human SGC-7901 cells assessed as late apoptotic cells at 1 uM incubated for 48 hrs by annexin V-PE and 7-AAD staining based flow cytometry analysis (reference value: 3.82 %). Format: functional.
Test [24] concerns SGC-7901. As to the kind of experiment: Induction of ROS-mediated apoptosis in human SGC-7901 cells assessed as viable cells at 2 uM incubated for 48 hrs by annexin V-PE and 7-AAD staining based flow cytometry analysis (reference value: 93.6 %). Type of test: functional. Particulars: read-out: Activity.
Test [25] deals with SGC-7901. As to the kind of experiment: Induction of ROS-mediated apoptosis in human SGC-7901 cells assessed as necrotic cells at 2 uM incubated for 48 hrs by annexin V-PE and 7-AAD staining based flow cytometry analysis (reference value: 0.733 %). Type of test: functional.
Test [26] relates to SGC-7901. The test can be described thus: Induction of ROS-mediated apoptosis in human SGC-7901 cells assessed as viable cells at 4 uM incubated for 48 hrs by annexin V-PE and 7-AAD staining based flow cytometry analysis (reference value: 93.6 %). Format: functional. Particulars: read-out: Activity.
For test [27], the system named is SGC-7901. As to the kind of experiment: Induction of ROS-mediated apoptosis in human SGC-7901 cells assessed as necrotic cells at 2 uM incubated for 48 hrs in presence of NAC by annexin V-PE and 7-AAD staining based flow cytometry analysis (reference value: 0.623 %). Type of test: functional.
The subject of test [28] is SGC-7901. As to the kind of experiment: Induction of ROS-mediated apoptosis in human SGC-7901 cells assessed as viable cells at 4 uM incubated for 48 hrs in presence of NAC by annexin V-PE and 7-AAD staining based flow cytometry analysis (reference value: 94.8 %). Type of test: functional. The settings on record: read-out: Activity.
Test [29] relates to SGC-7901. The test can be described thus: Induction of ROS-mediated apoptosis in human SGC-7901 cells assessed as late apoptotic cells at 4 uM incubated for 48 hrs in presence of NAC by annexin V-PE and 7-AAD staining based flow cytometry analysis (reference value: 3.45 %). Type of test: functional.
Test [30] has as its system SGC-7901. As to the kind of experiment: Induction of ROS-mediated apoptosis in human SGC-7901 cells assessed as necrotic cells at 4 uM incubated for 48 hrs in presence of NAC by annexin V-PE and 7-AAD staining based flow cytometry analysis (reference value: 0.623 %). Format: functional.

`COc1ccccc1Cn1n[n+](C)c2c1C(C)(C)[C@@H]1CC[C@]3(C)[C@H](CC[C@@H]4[C@H]5[C@H]6OC[C@@]5(CCC6(C)C)CC[C@]43C)[C@@]1(C)C2.[I-]`: the viability at 1 µM with ECa-109 cell line [1] was found to be 69.1%; with ECa-109 cell line [12], 76.2%. For the same molecule, the Activity in the test with ECa-109 cell line [2] was 17.4%; in the test with ECa-109 cell line [3] it was 12.9%; in the test on ECa-109 cell line [4], 0.624%; with ECa-109 cell line [7], 92.2%; in the test with ECa-109 cell line [8], “Dose-dependent effect”; in the test on ECa-109 cell line [9] it was 11.5%. The Activity worked out at 28.7% in the test with ECa-109 cell line [10]; 4.87% in the test on ECa-109 cell line [11]; 2.07% with ECa-109 cell line [13]; 35.03% with ECa-109 cell line [15]; 10.81% in the test on ECa-109 cell line [16]; 16.84% in the test on ECa-109 cell line [17]. The viability at 2 µM in the test with ECa-109 cell line [5] was 55.1%; in the test with ECa-109 cell line [14], 66.2%. For the same molecule, the viability at 4 µM in the test with ECa-109 cell line [6] is 1.26%.

Regarding `C[n+]1nn(Cc2c(F)cccc2Cl)c2c1C[C@]1(C)[C@H]3CC[C@@H]4[C@H]5[C@H]6OC[C@@]5(CCC6(C)C)CC[C@@]4(C)[C@]3(C)CC[C@H]1C2(C)C.[I-]`, the “Ratio IC50” value in test [18] is reported as 2.08. The Activity in the test on SGC-7901 [19] is listed as 4.79%; with SGC-7901 [21], 25.4%; with SGC-7901 [22], 2.07%; with SGC-7901 [23], 4.97%; in the test with SGC-7901 [25], 0.956%; in the test with SGC-7901 [27], 0.637%. Further, the figures for the Activity in the test on SGC-7901 [29] and in the test on SGC-7901 [30] were 77.8% and 2.66%, respectively. Further, the viability at 2 µM with SGC-7901 [20] is 64.6%; in the test with SGC-7901 [24], 60.2%. Moreover, the viability at 4 µM amounted to 0.152% in the test with SGC-7901 [26] and 15.3% with SGC-7901 [28].

The record behind these values is ChEMBL document CHEMBL4706545, “Antiproliferative effect of mitochondria-targeting allobetulin 1,2,3-triazolium salt derivatives and their mechanism of inducing apoptosis of cancer cells” (Eur J Med Chem, 2020).
